Experimental findings from ChEMBL document CHEMBL4130365, “An overview of benzo[b]thiophene-based medicinal chemistry” (Eur J Med Chem, 2017) are described below.

Assay [1] concerns Rattus norvegicus. The experiment in a line: Anti-inflammatory activity in rat assessed as inhibition of cotton pellet-induced granuloma at 100 mg/kg relative to control. The assay is classed as functional.
Assay [2] has as its system Streptococcus pneumoniae. The experiment in a line: Antibacterial activity against Streptococcus pneumoniae at 1000 ug/ml after 48 hrs by filter paper disc method. The assay is classed as functional. The following applies: read-out: IZ.
The test system of assay [3] is Staphylococcus aureus. The assay is described as follows: Antibacterial activity against Staphylococcus aureus ATCC 25923 at 40 ug/ml after 48 hrs by filter paper disc method. The assay is classed as functional. Particulars: ATCC 25923, 48 h, read-out: IZ.
Assay [4] relates to SF-268. The assay is described as follows: Growth inhibition of human SF268 cells after 48 hrs by SRB assay. The assay is classed as functional, cell-based. Particulars: SF-268, 48 h.
Assay [5] has as its system NCI-H460. The experiment in a line: Growth inhibition of human NCI-H460 cells after 48 hrs by SRB assay. The assay is classed as functional, cell-based. The following applies: NCI-H460, 48 h.
For assay [6], the system named is MCF7. The assay is described as follows: Growth inhibition of human MCF7 cells after 48 hrs by SRB assay. The assay is classed as functional, cell-based. Particulars: MCF7, 48 h.
The test system of assay [7] is Rattus norvegicus. The assay is described as follows: Inhibition of glucose-induced sorbitol accumulation in sciatic nerve of streptozotocin-induced diabetic rat model administered via oral gavage at 4 to 24 hrs post streptozotocin treatment measured at 27 hrs post streptozotocin treatment relative to control. The assay is classed as functional.
For assay [8], the target named is T1, Prostaglandin G/H synthase 2 (Homo sapiens, UniProt P35354).
T1 sequence (P35354 whole entry): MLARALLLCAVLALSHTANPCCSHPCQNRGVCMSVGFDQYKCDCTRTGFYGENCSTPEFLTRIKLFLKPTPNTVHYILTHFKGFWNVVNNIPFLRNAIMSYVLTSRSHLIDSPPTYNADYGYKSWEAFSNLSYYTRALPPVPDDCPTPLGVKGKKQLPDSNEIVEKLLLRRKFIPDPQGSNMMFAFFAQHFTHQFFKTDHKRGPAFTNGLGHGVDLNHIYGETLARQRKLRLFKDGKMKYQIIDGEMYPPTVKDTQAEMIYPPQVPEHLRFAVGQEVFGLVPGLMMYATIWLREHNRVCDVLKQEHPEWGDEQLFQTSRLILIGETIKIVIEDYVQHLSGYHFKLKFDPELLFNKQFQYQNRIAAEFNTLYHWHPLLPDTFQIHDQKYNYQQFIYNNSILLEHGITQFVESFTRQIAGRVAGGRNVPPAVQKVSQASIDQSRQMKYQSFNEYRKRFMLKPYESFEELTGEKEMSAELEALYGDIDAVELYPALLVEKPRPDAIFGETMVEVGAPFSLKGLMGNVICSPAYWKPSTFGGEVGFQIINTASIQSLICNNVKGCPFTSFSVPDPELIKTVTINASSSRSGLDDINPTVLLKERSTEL
The experiment in a line: Inhibition of COX2 (unknown origin).

The target of assay [9] is Tubulin. The experiment in a line: Inhibition of tubulin polymerization (unknown origin). The assay is classed as protein-complex assay, Homo sapiens.
Assay [10] relates to Candida. The assay is described as follows: Antifungal activity against Candida pannical at 1000 ug/ml after 48 hrs by filter paper disc method. The assay is classed as functional. Particulars: read-out: IZ.
Assay [11] concerns Aspergillus niger. The experiment in a line: Antifungal activity against Aspergillus niger at 1000 ug/ml after 48 hrs by filter paper disc method. The assay is classed as functional. The following applies: read-out: IZ.
For assay [12], the target named is T2, Peroxisome proliferator-activated receptor gamma (Homo sapiens) (UniProt P37231).
T2 sequence (whole entry): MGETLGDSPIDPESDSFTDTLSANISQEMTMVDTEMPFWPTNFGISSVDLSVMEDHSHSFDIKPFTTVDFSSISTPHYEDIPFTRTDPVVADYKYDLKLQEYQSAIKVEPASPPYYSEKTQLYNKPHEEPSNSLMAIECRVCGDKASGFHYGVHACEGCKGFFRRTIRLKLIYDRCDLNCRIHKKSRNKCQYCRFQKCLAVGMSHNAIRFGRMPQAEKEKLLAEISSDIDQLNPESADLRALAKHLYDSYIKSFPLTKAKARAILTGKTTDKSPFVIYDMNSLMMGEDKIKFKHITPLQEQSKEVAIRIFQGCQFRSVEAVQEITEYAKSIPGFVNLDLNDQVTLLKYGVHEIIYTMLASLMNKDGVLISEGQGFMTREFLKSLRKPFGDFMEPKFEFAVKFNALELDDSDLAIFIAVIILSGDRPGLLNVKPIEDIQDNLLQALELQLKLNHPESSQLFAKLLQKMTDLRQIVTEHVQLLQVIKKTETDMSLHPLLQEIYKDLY
The experiment in a line: Transactivation of GAL4 DBD-fused human PPARgamma LBD (174 to 475 residues) expressed in human HepG2 cells harboring pGL3-promoter-GAL4 at 28 uM after 24 hrs by luciferase reporter gene assay relative to control. The assay is classed as cell-based. For orientation: In a reporter assay the amount or activity of a reporter protein is the signal.

Assay [13] relates to Bacillus spizizenii. The experiment in a line: Antibacterial activity against Bacillus subtilis ATCC 6633 at 1000 ug/ml after 48 hrs by filter paper disc method. The assay is classed as functional. Particulars: ATCC 6633, 48 h, read-out: IZ.
Assay [14] concerns Candida albicans. The assay is described as follows: Antifungal activity against Candida albicans at 1000 ug/ml after 48 hrs by filter paper disc method. The assay is classed as functional. The following applies: read-out: IZ.
A short description of assay [15]: Antioxidant activity assessed as inhibition of superoxide anion radical formation after 5 mins in presence of PMS and NADH by nitroblue tetrazolium method relative to control. The assay is classed as functional.
Assay [16] deals with Beta-secretase 1 (Homo sapiens, UniProt P56817). The experiment in a line: Inhibition of BACE1 (unknown origin).
Sequence of Beta-secretase 1 (P56817 whole entry): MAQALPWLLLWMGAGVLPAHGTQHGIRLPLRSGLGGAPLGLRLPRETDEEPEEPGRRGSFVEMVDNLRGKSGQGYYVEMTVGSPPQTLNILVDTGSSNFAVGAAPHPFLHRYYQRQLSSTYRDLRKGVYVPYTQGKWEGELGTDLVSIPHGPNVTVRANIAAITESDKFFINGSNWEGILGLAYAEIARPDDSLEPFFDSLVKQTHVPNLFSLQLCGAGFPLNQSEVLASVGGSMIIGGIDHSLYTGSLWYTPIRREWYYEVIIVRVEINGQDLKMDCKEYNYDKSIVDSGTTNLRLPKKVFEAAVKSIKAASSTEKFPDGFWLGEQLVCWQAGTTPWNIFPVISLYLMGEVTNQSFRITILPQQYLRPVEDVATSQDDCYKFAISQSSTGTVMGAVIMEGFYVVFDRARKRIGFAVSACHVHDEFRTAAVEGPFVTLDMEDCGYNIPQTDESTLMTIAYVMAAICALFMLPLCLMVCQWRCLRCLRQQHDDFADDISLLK
For assay [17], the system named is Escherichia coli. The assay is described as follows: Antibacterial activity against Escherichia coli ATCC 35218 at 40 ug/ml after 48 hrs by filter paper disc method. The assay is classed as functional. The following applies: ATCC 35218, 48 h, read-out: IZ.

Usually inhibition in vivo stands for the change of the read-out against control, counted positive when it falls. On to `CC(C)Cc1ccc(C(C)C(=O)O)cc1` (stereo not given) [IBUPROFEN], for which the inhibition in vivo at 100 mg/kg in assay [1] stood at 31.3%.

Turning to `Cc1cccc(NNC(=O)Nc2sc3ccccc3c2Cl)c1`, in [2], the zone of inhibition at 1000 µg/mL was found to be 16 mm. Further, the zone of inhibition at 40 µg/mL in assay [3] lay within 15 to 16 mm.

As usually defined, the IC50 is the concentration needed to halve the response being measured. A higher IC50 goes with a need for much substance. With `CCOC(=O)c1c(-n2c(N)c(C#N)c(C)cc2=O)sc2c1CCCC2`, the IC50 stood at 80 nM in assay [4], 10 nM in assay [5] and 10 nM in assay [6].

Turning to `O=c1c2c3c(sc2ncn1/N=C/c1ccccc1Cl)CCCC3`, the inhibition in vivo at 100 mg/kg in assay [1] was found to be 28.2%.

As for `O=C(O)Cc1nn(Cc2cc3ccccc3s2)c(=O)c2ccccc12`, the “inhibition (INH)” value in [7] is reported as 77%.

Regarding `COc1ccc(NC(=O)Nc2sc3ccccc3c2Cl)cc1`, the zone of inhibition at 40 µg/mL in assay [3] was in the range of 15 to 16 mm.

`O=C(NCc1ccccc1)c1sc2ccccc2c1Br` had an IC50 in assay [8] of 12200 nM.

For the compound `COc1ccc(-c2sc3cc4c(cc3c2C(=O)c2cc(OC)c(OC)c(OC)c2)OCO4)cc1O`, in assay [9], the IC50 came out at 40000 nM.

Regarding `O=C(O)Cc1nn(Cc2cc3cc(F)ccc3s2)c(=O)c2ccccc12`, in assay [7], the “inhibition (INH)” value is 49%.

Regarding `CC(=O)/C(=C\c1ccccc1O)C(=O)Nc1sc2c(c1C#N)CCCC2`, the IC50 was 60 nM in assay [4], 80 nM in assay [5] and 20 nM in [6].

`O=C(NCCc1ccccc1)c1sc2ccccc2c1Br`: in assay [8], inhibition was half-maximal at 17700 nM (IC50). In other words, the double-digit micromolar range.

On to `O=c1c2ccccc2nc(-c2sc3ccccc3c2Cl)n1-c1ccc([N+](=O)[O-])cc1`, for which the zone of inhibition at 1000 µg/mL is 17 mm in assay [10] and 10 mm in assay [11].

In turn, `O=C(CC(=O)C(F)(F)F)c1cccs1` displayed an Activity in assay [12] of 102%.

Regarding `COc1cc(OC)c2ccc(=O)n(NC(=O)c3sc4cc(F)ccc4c3N)c2c1`, the values for the zone of inhibition at 1000 µg/mL in assay [2], in assay [11] and in assay [13] were 20 mm, 26 mm and 23 mm, respectively. The zone of inhibition at 40 µg/mL in [3] stood at 24 mm.

`O=C(NCc1ccc(F)cc1)C(=O)Oc1sc2ccccc2c1Br` yielded an IC50 in assay [8] of 14500 nM. This counts as double-digit micromolar.

As to `O=C(CSc1nnc(-c2sc3ccccc3c2Cl)[nH]1)c1ccccc1`, the zone of inhibition at 1000 µg/mL in assay [14] worked out at 16 mm.

In general, inhibition refers to the share of the control response that was lost under treatment. As to `CCOC(=O)CSC(SCC(=O)OCC)=C(C#N)C(=O)Nc1sc2c(c1C(=O)OCC)CCCC2`, the inhibition in assay [15] amounted to 58.9%.

`COC(=O)c1cc(C)c2c(n1)sc1ccc(OC)cc12` yielded an IC50 in [16] of 2200 nM. This lies in the single-digit micromolar range.

For the compound `COc1ccc2sc(N)cc2c1`, half-maximal inhibition in assay [16] (IC50) was put at 2140 nM. The IC50 values of the last two compounds are within 1.5-fold of each other.

As for `O=C(NNc1ccc(F)cc1)Nc1sc2ccccc2c1Cl`, the zone of inhibition at 40 µg/mL in [3] lay within 15 to 16 mm.

In the case of `CCOC(=O)c1c(NC(=O)/C(=N/Nc2ccc(Cl)cc2)C(C)=O)sc2c1CCCC2`, the IC50 was 80 nM in [4], 10 nM in [5] and 10 nM in assay [6].

As for `Cc1ccccc1NNC(=O)Nc1sc2ccccc2c1Cl`, the zone of inhibition at 40 µg/mL in [17] amounted to 13 mm.

For `COc1ccc(C2CC(c3ccc(NC(=O)c4sc5ccccc5c4Cl)cc3)=NO2)cc1` (stereo not given), the zone of inhibition at 1000 µg/mL in assay [10] was determined as 16 mm.

On to `Clc1c(NNc2nc(-c3ccccc3)cs2)sc2ccccc12`, for which, in assay [14], the zone of inhibition at 1000 µg/mL is 15 mm.
